Assay results published in ChEMBL document CHEMBL3132843, “Discovery of novel inhibitors for human farnesyltransferase (hFTase) via structure-based virtual screening” (Medchemcomm, 2013).

Legend:
[1] = system: MCF7; assay: Cytotoxicity against human MCF7 cells after 48 hrs by MTT assay; type: functional, cell-based; settings: MCF7, 48 h
[2] = target: Protein farnesyltransferase (Homo sapiens, UniProt P49354+P49356); assay: Inhibition of human FTase using farnesyl pyrophosphate as substrate by fluorescent assay; type: protein-complex assay

SMILES | IC50 [2] | IC50 [1]
Cc1ccc(Oc2ncccc2NC(=O)CC(CC(=O)O)c2ccccc2)c2c1CCC2 (stereo unspecified) | 13.3 µM | > 100 µM
CCOC(=O)c1c(C)oc2c1cc(NS(=O)(=O)c1ccc(C(=O)O)cc1)c1ccccc12 | 3.89 µM | 46.7 µM
Cc1ccc(Oc2ncccc2NC(=O)CCCC(=O)O)c2c1CCC2 | 5.4 µM | > 100 µM
CCN(CC)c1ccc(/C=N/Nc2nc(NCc3ccco3)nc(Nc3ccc(OC)cc3)n2)c(OCc2ccc(Cl)cc2Cl)c1 | 0.0515 µM | > 100 µM
COc1cc(CNc2ccc(O)cc2)cc(Cl)c1OCc1ccc(Cl)cc1 | 2.57 µM | 20.5 µM
Cc1c(Cc2ccccc2)sc(CC(=O)CCC(=O)O)c1C(N)=O | 3.52 µM | > 100 µM
Oc1ccc(NCc2cc(Cl)ccc2OCc2ccccc2F)cc1 | 4.21 µM | 12.2 µM
N#Cc1c(SCc2ccc(C(=O)O)cc2)nc2c(c1-c1ccccc1)CCC2 | 5.6 µM | > 100 µM
Cn1cncc1[C@@](N)(c1ccc(Cl)cc1)c1ccc2c(c1)c(-c1cccc(Cl)c1)cc(=O)n2C [TIPIFARNIB] | 0.003 µM | 3.08 µM

Further lines, with some results ahead:

IC50 [2] | SMILES | IC50 [1]
6.9 µM | Cc1cccc(Oc2ccc(NC(=O)c3ccccc3C(=O)O)cc2)c1C | > 100 µM
5.14 µM | COc1cc(/C=C2\S/C(=N\c3ccccc3)N(Cc3ccco3)C2=O)ccc1OC(C)C(=O)O (stereo unspecified) | > 100 µM
0.0119 µM | Oc1cccc2ccc(/C=C/c3ccccc3OCc3ccccc3Cl)nc12 | > 100 µM
0.0489 µM | Cc1cncc(NC(c2cccc(OCc3ccccc3)c2)c2ccc3cccnc3c2O)c1 (stereo unspecified) | 14.3 µM
0.14 µM | O=C(N/N=C\c1cn(Cc2ccc([N+](=O)[O-])cc2)c2ccccc12)c1cc2ccccc2o1 | > 100 µM
0.37 µM | COc1ccc(-c2cc(C(=O)OCC(=O)c3cccc4ccccc34)c3ccccc3n2)cc1 | > 100 µM
0.44 µM | Cc1ccc(OC(=O)c2ccc3c(c2)C(=O)N(c2cccc4ccccc24)C3=O)cc1 | > 100 µM
0.52 µM | O=C(c1ccc(Cl)cc1)N1N=C(c2c(-c3ccccc3)c3cc(Br)ccc3[nH]c2=O)CC1c1ccco1 (stereo unspecified) | 32.2 µM
1.46 µM | COc1cccc(C2C(C(=O)/C=C/c3ccccc3)=C(O)C(=O)N2c2ccccc2)c1 (stereo unspecified) | > 100 µM
2.58 µM | CC1=NN(c2ccccc2)C(=O)/C1=C/c1ccccc1OCc1ccc(C(=O)O)cc1 | 38.9 µM
3.22 µM | O=C(O)c1ccc(/N=[N+](/[O-])c2ccccc2Sc2ccccc2C(=O)O)cc1Sc1ccccc1O | > 100 µM
3.56 µM | O=C(O)C1CCCCC1C(=O)Nc1ccc(Oc2ccccc2)cc1 (stereo unspecified) | > 100 µM
8.8 µM | COCCN1C(=O)C(O)=C(C(=O)c2ccc(C)cc2)C1c1cccc(Oc2ccccc2)c1 (stereo unspecified) | > 100 µM
11 µM | O=C(c1ccccc1)c1ccc(/N=C/c2cc([N+](=O)[O-])ccc2O)cc1 | > 100 µM
